Test results as given in publication PMC9953561, “Five Post-Translational Modification Residues of CmPT2 Play Key Roles in Yeast and Rice” (International Journal of Molecular Sciences, 2023).

Tested on: CmPT2 (CmPht1;2)
Conditions: labelled compound; H+ co-transporter; whole yeast cells; pH of uptake assay not stated

SMILES: O=P(O)(O)O [phosphate]
- Km: 65.7 µM
